Measurements: ChEMBL document CHEMBL2095176, “GSK Tuberculosis Screening Data”
≈ marks a conversion by molar mass, not a printed value.

System: Mycobacterium tuberculosis variant bovis BCG
Test: microbe, parasite or virus in culture
Format: functional

Compound	MIC90
O=C(NC1CCCCC1)c1cc2cc(OC(F)(F)F)ccc2[nH]1	6.4 µM (≈ 2.09 µg/mL)
CC(C)c1ccc(NC(=O)c2ccc(C(=O)NC3CCCNC3)cc2)cc1 (stereo unspecified)	6.2 µM (≈ 2.27 µg/mL)
COc1ccc(-c2csc(NC(=O)c3cnc(SC)nc3)n2)cc1	1.1 µM (≈ 0.394 µg/mL)
COc1cc(CCN2CC[C@H](NC(=O)c3ccc(Cl)c(Cl)c3)C2)ccc1OC1CCNCC1	7 µM (≈ 3.45 µg/mL)
Cc1cc(CN2CC[C@H](NC(=O)c3ccc(Cl)c(Cl)c3)C2)ccc1OCCN1CCNCC1	7.1 µM (≈ 3.49 µg/mL)
Cc1cc(N)nc2cc(-c3ccc(CCN)cc3)ccc12	9.5 µM (≈ 2.64 µg/mL)
CCCc1cc(-c2nc(-c3ccc(OC)c(OC)c3)cs2)ccn1	6.7 µM (≈ 2.28 µg/mL)
CCCCNC(=O)c1cccc(-c2ccc(OCc3ccccc3)cc2)c1	9.9 µM (≈ 3.56 µg/mL)
NC(=O)c1ccc(-c2cccc(OCCNCCc3cccc(F)c3)c2)cc1	3.1 µM (≈ 1.17 µg/mL)
CN(C)c1nc2scc(-c3ccccc3)c2c(=O)o1	1.5 µM (≈ 0.408 µg/mL)
O=C(NCCCn1nc(Cl)c(N2CCCNCC2)cc1=O)c1ccc(-c2ccccc2)cc1	10 µM (≈ 4.66 µg/mL)
C=CCNCCS(=O)(=O)c1cccc(Nc2ccc(-c3cccc(F)c3)cn2)c1	3.1 µM (≈ 1.28 µg/mL)
Cc1cc(Cl)cc(C(=O)c2c(C(C)C)c(=O)[nH]c(=O)n2Cc2cc(F)nc(F)c2)c1	0.4 µM (≈ 0.174 µg/mL)
Nc1ccccc1Nc1ccc2c(c1)OCO2	1.7 µM (≈ 0.388 µg/mL)
COC(=O)COc1ccc(CCn2nnc(-c3ccc(C(F)(F)F)cc3)n2)cc1	7.6 µM (≈ 3.09 µg/mL)
CCCCOc1ccc(C(=O)Nc2nc(-c3ccccn3)cs2)cc1OCC	3.6 µM (≈ 1.43 µg/mL)
COc1cccc(C(=O)Nc2nc(-c3ccccn3)cs2)c1	7.6 µM (≈ 2.37 µg/mL)
CC(C)N(C(=O)CSc1nc2cc(Cl)ccc2[nH]1)C(C)C	9.5 µM (≈ 3.1 µg/mL)
O=c1c2sc(-c3ccc(Cl)cc3)cc2ncn1-c1ccc2c(c1)OC[C@H](CN1CCCC1)O2	2.5 µM (≈ 1.2 µg/mL)

Compound	MIC90
COc1ccccc1NC(=O)CN(Cc1ccco1)C(=O)c1cccc(-n2cnnn2)c1	7.7 µM (≈ 3.33 µg/mL)
CSc1ccc(-c2nnc(NC(=O)c3ccc(Cl)s3)o2)cc1	6.5 µM (≈ 2.29 µg/mL)
CS(=O)(=O)Nc1cccc(-c2cnc3[nH]cc(-c4cccc(CCN)c4)c3c2)c1	9.8 µM (≈ 3.98 µg/mL)
Clc1ccc(CCNc2cc(-c3ccccc3)nc3ncnn23)cc1	4 µM (≈ 1.4 µg/mL)
Cc1ccc2[nH]c(SCC(=O)NNC(=O)c3cccs3)nc2c1	5.9 µM (≈ 2.04 µg/mL)
Cc1ccc2c(OC3CCNCC3)cccc2n1	5.9 µM (≈ 1.43 µg/mL)
O=C(NC12CC3CC(CC(C3)C1)C2)c1cc2ccccc2[nH]1	2.5 µM (≈ 0.736 µg/mL)
Cc1cc(Cl)cc2nc(N3CCCNCC3)oc12	6.4 µM (≈ 1.7 µg/mL)
CCc1c(C)nc(-n2nc(C)cc2NC(=O)C(CC)c2ccccc2)[nH]c1=O (stereo unspecified)	1.2 µM (≈ 0.455 µg/mL)
O=C(/C=C/c1ccccc1C(F)(F)F)Nc1ccc2c(c1)C1CCCN1CC2 (stereo unspecified)	7.3 µM (≈ 2.82 µg/mL)
Cc1noc(C)c1COc1ccc(C(=O)N2CCCCC2c2nc3ccccc3s2)cc1 (stereo unspecified)	6.4 µM (≈ 2.86 µg/mL)
CCS(=O)(=O)c1ccc(C(=O)Nc2nc(-c3ccccn3)cs2)cc1	3.7 µM (≈ 1.38 µg/mL)
Cc1ccc(C)c(-c2nnc(NC(=O)c3ccc(Cl)s3)o2)c1	2.8 µM (≈ 0.935 µg/mL)
Cc1nc2ccccn2c1C(=O)NCc1ccc(Cl)cc1	2 µM (≈ 0.6 µg/mL)
Cc1ccc(C(=O)N2N=C(C(F)(F)F)CC2(O)c2ccncc2)cc1 (stereo unspecified)	4.4 µM (≈ 1.54 µg/mL)
Cc1ccc(Nc2ccc(C(=O)O)cc2N)cc1	7.9 µM (≈ 1.91 µg/mL)
CC1=Nc2ccccc2CN1CC(O)c1cc(Br)cs1 (stereo unspecified)	8.4 µM (≈ 2.95 µg/mL)
CCOc1cc(OC)c(C(=O)Nc2cccc3c2CCNC3C)cc1Cl (stereo unspecified)	3.7 µM (≈ 1.39 µg/mL)
CCCc1cc(=O)[nH]c(-n2nc(C)cc2NC(=O)CC(c2ccccc2)c2ccccc2)n1	7.5 µM (≈ 3.31 µg/mL)

Compound	MIC90
c1ccc(-c2ccc(CN3CCC4(CC3)OCCc3sccc34)s2)cc1	4.7 µM (≈ 1.79 µg/mL)
COc1ccccc1N1CCN(c2cccc3c2nc(/C=C/c2ccncc2)n3C2CCNCC2)CC1	5.5 µM (≈ 2.72 µg/mL)
O=S(=O)(NCC1CCCO1)c1ccc(-c2ccc(CN3CCOCC3)cc2)s1 (stereo unspecified)	4.1 µM (≈ 1.73 µg/mL)
Cn1nc(C(=O)N2CCc3sccc3C2c2cccs2)c2ccccc2c1=O (stereo unspecified)	4.6 µM (≈ 1.87 µg/mL)
CSc1ccc(C(=O)Nc2nnc(-c3ccc4c(c3)CCCC4)o2)cc1	7 µM (≈ 2.56 µg/mL)
NC(=O)c1cnc2ccc(S(=O)(=O)c3ccccc3)cc2c1Nc1ccc(O)cc1	2.9 µM (≈ 1.22 µg/mL)
CC1CCC(NC(=O)Nc2ccc3snnc3c2)CC1 (stereo unspecified)	7 µM (≈ 2.03 µg/mL)
C=CCNCCS(=O)(=O)c1cccc(Nc2ccc(-c3ccsc3)cn2)c1	6 µM (≈ 2.4 µg/mL)
c1ccc(Cc2nnc(Sc3ccnc(N4CCN(c5ccncc5)CC4)n3)n2CCCN2CCOCC2)cc1	2.7 µM (≈ 1.51 µg/mL)
CN1CCN(c2ccc(C(F)(F)F)cc2NC(=O)c2ccccn2)CC1	7.2 µM (≈ 2.62 µg/mL)
Oc1ccc(Nc2ccccc2Nc2ccccc2)cc1Cl	7.7 µM (≈ 2.39 µg/mL)
COc1ccc(-c2cc3nccc(C4CCCNC4)n3n2)cc1 (stereo unspecified)	6.5 µM (≈ 2 µg/mL)
COc1cccc(C(=O)N(Cc2cccnc2)Cc2cc3c(C)cc(C)cc3nc2Cl)c1	3.1 µM (≈ 1.38 µg/mL)
O=C(c1[nH]nc2c1CCCC2)N1CCN(Cc2ccc3c(c2)OCO3)CC1	3.9 µM (≈ 1.44 µg/mL)
CC(=O)Oc1ccc(Cn2cc(C(=O)NCc3ccccc3)sc2=O)cc1	6.9 µM (≈ 2.64 µg/mL)
Cc1ccc(-n2ncc3c(SCC(=O)NNC(=O)c4ccco4)ncnc32)cc1	3.6 µM (≈ 1.47 µg/mL)
C=CCNCCS(=O)(=O)c1cccc(Nc2ccc(-c3ccc(OC)nc3)cn2)c1	1.3 µM (≈ 0.552 µg/mL)
CCCc1ccc(NC(=O)c2ccc(CN3CCN(Cc4ccsc4)CC3)cc2)cc1	5.6 µM (≈ 2.43 µg/mL)
